Assay results reported in US20090137844A1, “Crystallization process” (Fermion Oy, priority 2005, published 2009).
Structures can show the parent of a compound that is named as a salt. Values belong to the molecule of their own block, whether it stands above or below them.

What was measured:
Assay type in all cases: physicochemical
[1] = Volumetric particle size distribution by laser diffraction (Coulter LS230); settings: for Particle size distribution (laser diffraction) LDP 10 / Particle size distribution (laser diffraction) LDP 50 / Particle size distribution (laser diffraction) LDP 90: procedure of Example 1
Description: Particle size distribution is analyzed visually using light microscope or by laser diffraction using the following method: Saturated 2-Propanol: To 250 ml of 2-propanol is added approx 1 g of tamsulosin HCl powder and sonicated at room temperature about 30 min. The mixture is let stand overnight, hereafter it is filtered through […] membrane filter. Sample Preparation About 30 mg of tamsulosin HCl is weighed in a 25 ml decanter. 2-4 drops of saturated 2-propanol is added to the sample and stirred with a glass rod. After that 4 ml of saturated 2-propanol is added and the sample is kept in ultra sound for 30 seconds before measuring volumetric particle size distribution using Coulter LS230, Laser Diffraction Particle Size Analyzer.

[2] = Crystal particle size by light microscope (visually observed); settings: for Size of particle (light microscope), 90% of crystals below: procedure of Example 1
Description: Particle size distribution is analyzed visually using light microscope or by laser diffraction using the following method: In table 1 below there are the results of experiments using different addition temperatures. Procedure is the same as above.

[3] = Solubility in alcoholic solvents
[4] = Example 2: 15% HCl added at 40° C., cooled to 20° C.
[5] = Example 3: Example 2 repeated, HCl addition temperature 20° C.

Crystal size distribution (laser diffraction) LDP 10 [1, 4]: 5 μm | Crystal size distribution (laser diffraction) LDP 50 [1, 4]: 20 μm | Crystal size distribution (laser diffraction) LDP 90 [1, 4]: 36 μm | Crystal size distribution (laser diffraction) LDP 10 [1, 5]: 3 μm | Crystal size distribution (laser diffraction) LDP 50 [1, 5]: 14 μm | Crystal size distribution (laser diffraction) LDP 90 [1, 5]: 29 μm | Particle size distribution (laser diffraction) LDP 10 ([1]; HCl added at 0° C.): LDP 10 = 1 μm | Particle size distribution (laser diffraction) LDP 50 ([1]; HCl added at 0° C.): LDP 50 = 3 μm | Particle size distribution (laser diffraction) LDP 90 ([1]; HCl added at 0° C.): LDP 90 = 12 μm | Particle size distribution (laser diffraction) LDP 10 ([1]; HCl added at 10° C.): LDP 10 = 1 μm | Particle size distribution (laser diffraction) LDP 50 ([1]; HCl added at 10° C.): LDP 50 = 5 μm | Particle size distribution (laser diffraction) LDP 90 ([1]; HCl added at 10° C.): LDP 90 = 10 μm | Particle size distribution (laser diffraction) LDP 10 ([1]; HCl added at 20° C.): LDP 10 = 2 μm | Particle size distribution (laser diffraction) LDP 50 ([1]; HCl added at 20° C.): LDP 50 = 7 μm | Particle size distribution (laser diffraction) LDP 90 ([1]; HCl added at 20° C.): LDP 90 = 17 μm | Particle size distribution (laser diffraction) LDP 10 ([1]; HCl added at 30° C.): LDP 10 = 4 μm | Particle size distribution (laser diffraction) LDP 50 ([1]; HCl added at 30° C.): LDP 50 = 15 μm | Particle size distribution (laser diffraction) LDP 90 ([1]; HCl added at 30° C.): LDP 90 = 29 μm | Particle size distribution (laser diffraction) LDP 10 ([1]; HCl added at 40° C.): LDP 10 = 9 μm | Particle size distribution (laser diffraction) LDP 50 ([1]; HCl added at 40° C.): LDP 50 = 29 μm | Particle size distribution (laser diffraction) LDP 90 ([1]; HCl added at 40° C.): LDP 90 = 55 μm | Size below which 90% of the crystals are (laser diffraction) ([1]; addition temperature about 20° C.): below 20 micrometers | Size below which 90% of the crystals are (laser diffraction) ([1]; addition temperature about 40° C.): below 60 micrometers | Size of particle (light microscope), 90% of crystals below ([2]; HCl added at 0° C.): 90% < 3 μm | Size of particle (light microscope), 90% of crystals below ([2]; HCl added at 10° C.): 90% < 5 μm | Size of particle (light microscope), 90% of crystals below ([2]; HCl added at 20° C.): 90% < 10 μm | Size of particle (light microscope), 90% of crystals below ([2]; HCl added at 30° C.): 90% < 15 μm | Size of particle (light microscope), 90% of crystals below ([2]; HCl added at 40° C.): 90% < 30 μm | Size of particle (light microscope), 90% of crystals below ([2]; HCl added at 80° C.): 90% < 250 μm | Size below which 90% of the crystals are (light microscope) ([2]; hydrochloride added at e.g. 80° C.): below 250 micrometers | Size below which 90% of the crystals are (light microscope) ([2]; hydrochloride added below about 30° C.): below 15 micrometers
Structure (SMILES): CCOc1ccccc1OCCNC(C)Cc1ccc(OC)c(S(N)(=O)=O)c1 (centres unmarked) [tamsulosin hydrochloride, 5-[2-[[2-(2-ethoxyphenoxy)ethyl]amino]propyl]-2-methoxybenzene-sulfonamide]

Solubility [3]: poorly soluble
Structure (SMILES): CCOc1ccccc1OCCNC(C)Cc1ccc(OC)c(S(N)(=O)=O)c1 (centres unmarked) [tamsulosin, 5-[2-[[2-(2-ethoxyphenoxy)ethyl]amino]propyl]-2-methoxybenzene-sulfonamide]
